Results as given in patent publication US20120295804A1, “Compositions and Methods for Diagnosis and Treatment of Breast Cancer” (University of Medicine and Dentistry of New Jersey, priority 2011, published 2012).

Key:
Oct4^− BCCs = experiment: Chemical induction of GFP in Oct4(−) breast cancer cells stably transfected with pEGFP1-Oct3/4; assay type: cell-based; conditions: 2.7 μM BIX01294, 24 h, pEGFP1-Oct3/4 stable transfectants
Excerpt: Therefore, different BCC subsets were selected based on Oct4 expression. To do this, MDA-MB-231 and T47D were stably transfected with an Oct4 reporter vector, pEGFP1-Oct3/4 (Gerrard, L. et al. 2005. Stem Cells 23:124-133). The transfected cells were sorted into three subsets based on GFP expression levels. The top 5% of GFP expressers were designated Oct4^hi and the lowest 5%, Oct4^−. The population between the extremes were designated Oct4^med. GFP intensities were validated for correlation with Oct4 protein by intracellular flow cytometry of pEGFP1-Oct3/4 transfectants. The Oct4^− population was similar to isotype control. In contrast, the mean fluorescence intensity (MFI) of cells labeled with APC-anti-Oct4 correlated with GFP intensities.
At 40-50% confluence stably transfected BCCs were treated with G9a histone methyltransferase inhibitor, [2-(Hexahydro-4-methyl-1H-1,4-diazepin-1-yl)-6,7-dimethoxy-N-[1-(phenylmethyl)-4-piperidinyl]4-quinazolinamine] (BIX01294, Enzo Life Sciences, Farmingdale, N.Y.). BIX01294 and similar chemicals can induce Oct4 in negative cells, in reprogramming (Huangfu, D. et al. 2008. Nat. Biotech. 26:795-797; Shi, Y. et al. 2008. Cell Stem Cell 3:568-574). Cells were treated with 2.7 μM BIX01294. After 24 h, images were taken by fluorescence microscopy. Control cells were untreated or treated with vehicle (dimethyl sulphoxide, DMSO).

[1] = system: GJIC between Oct4^hi BCCs and BM stroma; experiment: GJIC in co-cultures of Oct4^hi BCCs and bone marrow stroma with or without 1-octanol; assay type: cell-based; conditions: 300 μM 1-octanol
Excerpt: Connexin (Cx) expression was studied using plasma membrane extracts from unsorted, Oct4^hi, Oct4^med and Oct4^− BCCs. […] It was next determined if the higher expression of connexins in BCCs could provide the cells with an advantage to form GJIC, in co-cultures of Oct4^hi BCCs and BM stroma. […] As expected, in the presence of the GJIC inhibitor 1-octanol, the intensity of Cx43 was reduced. GJIC was studied via dye transfer between BCCs and stroma using CFDA-SE-labeled Oct4^hi BCCs, as described previously (Lim, P. K. et al. 2011. Cancer Res. 71:1550-1560). Dye transfer into stroma was blunted by 1-octanol. Finally, the total number of BCCs showing dye transfer was counted in order to quantify functional GJIC.
GJIC was assessed by CFDA-SE dye exchange from BCCs to stroma in co-cultures, as described previously (Ramkisson, S. H. et al. 2007. Cancer Res. 67:1653-1659). Briefly, BCCs and stroma were co-cultured at equal ratios in α-MEM with 10% FCS, in the presence or absence of 300 μM 1-octanol. CFDA-SE dye transfer was assessed on an EVOS fl fluorescence imager (AMG Micro, Bothell, Wash.).

[2] = system: Oct4^hi BCCs (MDA-MB-231 and T47D); experiment: Hoechst 33342 dye exclusion (side population) in the presence or absence of verapamil; assay type: cell-based; conditions: 400 μM verapamil, 5 μg/mL Hoechst 33342, Oct4^hi population
Procedure: FIG. 7 depicts results of experiments of dye retention in BCC subsets. Oct4^hi BCCs were labeled with Hoechst 33342 (5 μg/mL), in the presence or absence of 400 μM verapamil. Propidium iodide-negative cells were gated based on GFP intensity. The cells were analyzed on Hoechst Blue and Hoechst Red filters. Side population cells that were Hoechst negative (circled) were compared in the two experimental conditions. The figure represents five different experiments, with MDA-MB-231 and T47D.
Experiments were then performed to determine if drug resistance genes played any role in the differentiation of BCC subsets. […] Oct4^hi cells were incubated in the presence or absence of verapamil, which inhibits multi-drug resistance transporters, and then dye exclusion was tested in four different experiments. Oct4^hi, Oct4^med and Oct4^− cells were tested. […] Only few Oct4^med (FIG. 8) and Oct4^− cells (FIG. 9) excluded the dye.
Side population analysis of the pEGFP1-Oct4 stable transfectants was performed using the LSR II (BD Biosciences). […] Optimal titrations and conditions were determined to be 5 μg/ml Hoechst 33342 (90 min incubation at 37° C.) and 400 μM verapamil (10 min pre-incubation). […] The cells between the two extremes were also analyzed (Oct4^med).

unsorted BCCs = experiment: Carboplatin response of subcutaneous tumors from unsorted BCCs; assay type: in vivo, nude BALB/c mice; conditions: 50 mg/kg i.p. twice at 3-day intervals
Procedure: (§1) Both triple-negative MDA-MB-231 and triple-positive T47D are expected to respond to carboplatin treatment, a drug which acts through a mechanism independent of hormone receptor status. Thus, the responsiveness to carboplatin was investigated in Oct4^hi cells from both cells lines. Tumors were injected into the dorsal flanks of mice as before. When the tumors were 0.5 cm^3 the mice were injected with carboplatin intra-peritoneally (i.p.).
(§2) Serial passage of different BCC subsets was performed by injecting BCCs in dorsal flanks of mice. The cells were resuspended in PBS and then mixed with matrigel at 1:1 ratio in 0.2 mL total volume. The cells were injected at different numbers, but in a constant volume to study dose effects on the time for tumor growth. Parallel analyses were performed with unsorted BCCs. Tumors were monitored daily for 30 days and measured in two dimensions with a caliper and volume was calculated using the following: formula V=πr^2h, where r=radius and h=height. Subsequent passages occurred by sorting the same cell subset (top 5% highest GFP) and then repeating the injection as above.
(§3) Carboplatin responses to tumor growth were assessed by subcutaneous injection of 200 Oct4^hi BCCs in matrigel in the dorsal flank. For unsorted BCCs, 10^6 cells were injected. […] Tumor sizes were recorded every 2 days with a caliper, as described for serial passage.

Oct4^hi BCCs = experiment: Carboplatin response of subcutaneous tumors from Oct4^hi BCCs; assay type: in vivo, nude BALB/c mice; conditions: 50 mg/kg i.p. twice at 3-day intervals, same tumor size as unsorted BCCs
Procedure: as §1, §2, §3

Oct4^hi MDA-MB-231 = experiment: Carboplatin resistance of Oct4^hi BCCs in bone marrow (femur endosteum); assay type: in vivo, mice; conditions: 10^3 Oct4^hi MDA-MB-231 i.v.; carboplatin 50 mg/kg i.p. at 3-day intervals; femurs examined one week after second injection
Procedure: It was then determined if Oct4^hi BCCs, at sites of distant metastasis, such as bone marrow, could resist carboplatin treatment. Bone marrow was selected for study because it is well-established that BCCs can attain dormancy in this organ, close to the endosteum (Lim, P. K. et al. 2011. Cancer Res. 71:1550-1560; Rao, G. et al. 2004. Cancer Res. 64:2874-2881). Mice were injected intravenously with 10^3 Oct4^hi MDA-MB-231. After 1 day, carboplatin was injected i.p. at 3-day intervals. One week after the second injection, femurs were decalcified, processed, and examined for GFP^+ cells. […] Similar cells were not detected in the cellular regions of the marrow, which were flushed from femurs prior to the analyses of the endosteal regions. Mice were injected intravenously with 10^3 BCCs, stably transfected with pEGFP1-Oct3/4. After 24 hours, mice were injected i.p. with carboplatin (50 mg/kg), followed by a second dose after 3 days. One week after the final injection of carboplatin, mice were euthanized, and the femurs were removed. Femurs were rinsed and the cells flushed using a 27 gauge needle attached to a syringe with PBS to remove the cells within the central region of the cavity. After this, the femurs were fixed overnight in 4% formaldehyde at 4° C. […] Slides were examined with an EVOS fl fluorescence imager.

Compound: COc1cc2nc(N3CCCN(C)CC3)nc(NC3CCN(Cc4ccccc4)CC3)c2cc1OC [BIX01294, 2-(Hexahydro-4-methyl-1H-1,4-diazepin-1-yl)-6,7-dimethoxy-N-[1-(phenylmethyl)-4-piperidinyl]4-quinazolinamine]
- Oct4^− BCCs reverted to high GFP expression (Oct4^− BCCs): 92.5%±4.4%

Compound: CCCCCCCCO [1-octanol]
- CFDA-SE dye transfer into stroma ([1]; CFDA-SE-labeled Oct4^hi BCCs): blunted
- intensity of Cx43 immunofluorescence ([1]; co-cultures of Oct4^hi BCCs and BM stroma): reduced

Compound: COc1ccc(CCN(C)CCCC(C#N)(c2ccc(OC)c(OC)c2)C(C)C)cc1OC (centres unmarked) [verapamil]
- difference in Hoechst dye retention with verapamil [2]: 3 fold

Compound: N.N.O=C([O-])C1(C(=O)[O-])CCC1.[Pt+2] [carboplatin]
- tumors eight days after treatment with carboplatin (unsorted BCCs; mice injected with unsorted BCCs): tumors were undetectable
- tumor change after the second injection of carboplatin (unsorted BCCs; tumors 0.5 cm^3 at start, vs Oct4^hi and untreated unsorted BCC): significant (p<0.05) reduction
- tumors after carboplatin treatment (Oct4^hi BCCs): retained palpable tumors
- GFP^+ BCCs in femur after carboplatin (Oct4^hi MDA-MB-231): drug resistance in GFP^+ BCCs close to the endosteum of bone marrow
